Assay results reported in PMC2880208 (Cancer research, 2010).
Read-outs that look alike come from different tables or passages of the source.

What was measured:
[1] = cited from earlier work
MT330 cells [2] = assay: Drug sensitivity; format: cell-based, human; conditions: MT330, gefitinib alone 0.001-50 μM
U87 cells [3] = assay: Intracellular accumulation of topotecan in vitro; format: cell-based, human; conditions: topotecan 0.1 μM, gefitinib 1 or 10 μM, dose-dependent
[4] = subcutaneous glioma xenografts, for 8 hours after a single oral dose of 55 mg/kg; cited from earlier work
U87 cells [5] = assay: Drug sensitivity; format: cell-based, human; conditions: U87, gefitinib alone 0.001-50 μM
MT330 cells [6] = assay: Intracellular accumulation of topotecan in vitro; format: cell-based, human; conditions: topotecan 0.1 μM, gefitinib 1 or 10 μM, dose-dependent
[7] = format: in vivo, CD1 athymic nude mice; conditions: CD1 athymic nude, mouse, iv, 4 mg/kg, 4 mg/kg i.v., mean ± SD
[8] = Intratumor distribution of topotecan; format: in vivo, CD1 nude mice; conditions: U87, TPT25: 25 μg/h topotecan, n=8
[9] = CD1 nude mice; cited from earlier work

Row | Kp ([7]; brain extracellular fluid (microdialysate) / plasma, Pbrain (brain ECF-to-plasma AUC ratio of unbound topotecan lactone), non-tumor-bearing CD1 nude mice, n=7) | Kp ([7]; Pcontralateral (contralateral brain ECF-to-plasma AUC ratio), U87 tumor-bearing mice, n=5) | Css,plasma (unbound lactone) (Steady-state; 25 μg/h topotecan infusion, before gefitinib, n=15) | Css,tECF (unbound topotecan lactone in tumor ECF) (Steady-state; U87, 25 μg/h topotecan infusion, after gefitinib 200 mg/kg, n=10) | Css,tECF (unbound topotecan lactone in tumor ECF) (Steady-state; U87, 25 μg/h topotecan infusion, before gefitinib, n=10) | Css,tECF (unbound topotecan lactone in tumor ECF) (Steady-state; U87, TPT12-GEF: 12.5 μg/h topotecan after 200 mg/kg gefitinib, n=3) | Atot,tumor (total topotecan lactone in tumor homogenate at steady-state) [8] | SMILES | Effect of gefitinib on topotecan lactone plasma clearance [1] | Effect on cell growth (MT330 cells [2]) | Enhancement of topotecan accumulation by gefitinib (U87 cells [3]) | Intratumor gefitinib concentration [4] | Effect on cell growth (U87 cells [5]) | Enhancement of topotecan accumulation by gefitinib (MT330 cells [6]) | Unbound fraction in plasma [9]
1 |  |  |  |  |  |  |  | COc1cc2ncnc(Nc3ccc(F)c(Cl)c3)c2cc1OCCCN1CCOCC1 [gefitinib] | halves | did not substantially affect growth | ≤ 36% | > 20 µM | did not substantially affect growth | ≤ 36% | 
2 | 0.3 ± 0.11 | 0.42 ± 0.11 | 34 ± 8 ng/mL | 30 ± 12 ng/mL | 22 ± 10 ng/mL | 6.4 ± 0.8 ng/mL | 47 ± 21 ng/mg tumor | CC[C@@]1(O)C(=O)OCc2c1cc1n(c2=O)Cc2cc3c(CN(C)C)c(O)ccc3nc2-1 [topotecan] |  |  |  |  |  |  | 27%
